A short description of the data set: Human HepG2 cell viability assay in 384 well format. Type of data set: toxicity, cell-based. Also on record: dose 125 nL, time 70.5 hour; cytotoxicity at 70.5 h: concentration not given beside the values. The following applies: HepG2 cells, read-out: Inhibition.

In ChEMBL document CHEMBL3507680, “University of Dundee, Gates Library screen for HepG2 cell viability” one finds cytotoxicity data, which are given here for 74 compounds.

Molecules are shown by their SMILES.

For `Cc1nc(CN(C)C2CCN(Cc3ccc(C(N)=O)cc3)C2)no1` (centres undefined), the cytotoxicity at 70.5 h was -11.2%.

In the case of `Cc1nn(C)c(N2CCOCC2)c1CNCc1ccccc1CO`, the cytotoxicity at 70.5 h was -10.1%. With `CCn1cc(CN2CCCN(C(=O)c3cc(C)no3)CC2)cn1`, the cytotoxicity at 70.5 h was -2.69%. The value for `CC(C)c1nnc(CNC2CCCN(Cc3noc(C4CC4)n3)C2)o1` (centres undefined) was -5.67%; that for `CCn1cc(CN2CCCN(C(=O)c3ccco3)CC2)cn1` was -6.43%. The value for `Cc1ccoc1C(=O)N1CCCN(Cc2cnn(C)c2)CC1` was -17.4%. The value for `COc1cc2ccccc2cc1C(=O)N1CCCC(c2nncn2C)C1` (centres undefined) was -11.4%; that for `CCc1nc(CN2CCCC(NCc3nc(C)c(C)o3)C2)no1` (centres undefined) was -10.5%; that for `CCOc1ncccc1C(=O)N1CCCC(c2nncn2C)C1` (centres undefined) was -3.42%. Turning to `Cc1nn(C)c(C)c1C1CCCN1C(=O)c1ccnc(N(C)C)c1` (centres undefined), the cytotoxicity at 70.5 h is -14.3%. The value for `COc1c(C2CCCN2C(=O)c2cnccn2)c(C)nn1C` (centres undefined) was 20.2%. Take `CCc1nnc(CNC2CCCN(Cc3noc(C4CC4)n3)C2)o1` (centres undefined): the cytotoxicity at 70.5 h is -9.18%.

Consider `Cc1nc(CN(C)C2CCN(Cc3ccc4c(c3)CCC4)C2)no1` (centres undefined), for which the cytotoxicity at 70.5 h was -9.34%.

As for `Cn1cnnc1C1CCCN(C(=O)COc2ccccc2Cl)C1` (centres undefined), the cytotoxicity at 70.5 h is -6.87%. Consider `Cn1cnnc1C1CCCN(C(=O)c2cc(Cl)cc(Cl)c2)C1` (centres undefined), for which the cytotoxicity at 70.5 h was -8.15%. Turning to `CN(C)c1cc(CNC(=O)c2n[nH]c(=O)c3ccccc23)ccn1`, the cytotoxicity at 70.5 h came out at 12.8%. Consider `Cn1cnnc1C1CCCN(C(=O)c2cc3ccccc3[nH]2)C1` (centres undefined), for which the cytotoxicity at 70.5 h is -11.2%.

Turning to `Cc1nn(C)c(N2CCOCC2)c1CNCc1ccc(N(C)C)nc1`, the cytotoxicity at 70.5 h came out at 15.7%. For `Cc1nn(C)c(N2CCOCC2)c1CNCc1ccnn1C`, the cytotoxicity at 70.5 h is -9.28%. As for `COc1ncccc1CNCc1c(C)nn(C)c1N1CCOCC1`, the cytotoxicity at 70.5 h is -12.3%. The value for `CN(C)c1cc(CNC(=O)c2cc(Cl)ccn2)ccn1` was -11.8%; that for `CCn1cc(CN2CCCN(C(=O)c3ccoc3C)CC2)cn1` was -7.59%. As for `CCn1cc(CN2CCCN(C(=O)c3c(C)oc(C)c3C)CC2)cn1`, the cytotoxicity at 70.5 h was -12.8%. Take `CNc1cc2c(nn1)CCN(C(=O)c1cc(C)no1)C2`: the cytotoxicity at 70.5 h is -7.41%.

`CNc1cc2c(nn1)CCN(C(=O)c1ccc3c(c1)CCC3)C2`: the cytotoxicity at 70.5 h is -4.27%. The value for `COc1c(C2CCCN2C(=O)c2ccc(C#N)cc2)c(C)nn1C` (centres undefined) was -9.49%. On to `O=C(CCc1nccs1)N1CCN(c2nccs2)CC1`, for which the cytotoxicity at 70.5 h was -7.6%.

With `CCC1CN(CC(=O)Nc2cc(C)nn2C)CCO1` (centres undefined), the cytotoxicity at 70.5 h is -5.03%. For `Cn1cnnc1C1CCN(C(=O)Cc2ccc3c(c2)OCCO3)CC1`, the cytotoxicity at 70.5 h is -2.32%.

In the case of `Cc1cnn(CC2CCCN2C(=O)c2cccc3c2OCO3)c1` (centres undefined), the cytotoxicity at 70.5 h was -5.23%.

Consider `Cc1cccc2c1CCN(c1cc(N3CCCC3CO)ncn1)C2` (centres undefined), for which the cytotoxicity at 70.5 h is -10.5%. The value for `CC(NC(=O)NCCOc1ccc(Cl)cc1)c1nncn1C` (centres undefined) was -12.4%; that for `COc1ccc(CC(=O)N2CCCC(c3nncn3C)C2)cc1` (centres undefined) was -2.88%. The value for `COc1ccc(C(=O)N(C)Cc2ncc(C)c(OC)c2C)c(OC)c1` was -4.31%; that for `COCCOc1ccccc1C(=O)N(C)Cc1ncc(C)c(OC)c1C` was -5.65%. The value for `Cc1cc(C)c(C)c(OCCCNC(=O)NC(C)c2nncn2C)c1` (centres undefined) was 14.5%; that for `Fc1cccc(CN2CCN(Cc3cscn3)CC2)c1` was -4.73%; that for `COc1cccc(C(=O)N(C)Cc2ncc(C)c(OC)c2C)c1OC` was -0.629%. Take `COCc1ccccc1C(=O)N(C)Cc1ncc(C)c(OC)c1C`: the cytotoxicity at 70.5 h was 19.4%. With `NC(=O)C1CCCN1c1cc(N2CCc3ccccc3C2)ncn1` (centres undefined), the cytotoxicity at 70.5 h is -5.82%.

Regarding `c1cnnc(N2CCCC(NCc3ccc(-n4cncn4)cc3)C2)c1` (centres undefined), the cytotoxicity at 70.5 h was -3.17%. Consider `Cc1noc2ncc(C(=O)N3CCCC(n4ccnc4C)C3)cc12` (centres undefined), for which the cytotoxicity at 70.5 h was -7.39%. With `O=C(c1ccccc1OCC1CC1)N1CCCC1Cn1cccn1` (centres undefined), the cytotoxicity at 70.5 h turned out to be 17.7%. Consider `O=C1COc2c(cccc2C(=O)N2CCCC2Cn2cccn2)N1` (centres undefined), for which the cytotoxicity at 70.5 h was -8.08%. The value for `CN1CCN(c2cc(N3CCCC3CO)ncn2)Cc2ccccc21` (centres undefined) was 17.8%; that for `COc1ccc2c(c1)CN(c1cc(N3CCCC3CO)ncn1)CC2` (centres undefined) was -7.51%; that for `CC(C)c1n[nH]c(C2CN(Cc3nnc(C4CC4)n3C)CCO2)n1` (centres undefined) was -7.72%. The value for `Cc1nc(CN2CCCC(N(C)Cc3nnc(C4CC4)o3)C2)no1` (centres undefined) was 13.8%; that for `CC(C)c1nnc2n1CCN(C(=O)c1cccc(OCC(N)=O)c1)C2` was -2.06%. In the case of `CC(C)c1nc(CN2CCCC2CN2CCCC2)cs1` (centres undefined), the cytotoxicity at 70.5 h is -7.95%.

As for `CCN1CCN(Cc2csc(C(C)C)n2)CC1`, the cytotoxicity at 70.5 h is -8.86%. Regarding `Cc1nc(C)n(CC2CCCCN2Cc2cscn2)n1` (centres undefined), the cytotoxicity at 70.5 h was -5.99%. On to `Cc1nc(C)n(CC2CCCN2Cc2ccccn2)n1` (centres undefined), for which the cytotoxicity at 70.5 h is -6.2%.

`CCC(O)CN1CCN(C(=O)Cc2nc(-c3ccco3)oc2C)CC1` (centres undefined): the cytotoxicity at 70.5 h is -2.09%.

`Cc1nc(C)n(CC2CCCN2Cc2cnc(C)s2)n1` (centres undefined): the cytotoxicity at 70.5 h was -8.97%.

As to `Cc1nc(CN2CCCC2Cn2cncn2)nc2ccccc12` (centres undefined), the cytotoxicity at 70.5 h is -12.1%.

Consider `CC(C)c1nc(CN2CCOCC2)cs1`, for which the cytotoxicity at 70.5 h is 7.98%. As for `CN(Cc1ccccc1)C(=O)CS(=O)(=O)Cc1ccc(Cl)c(Cl)c1`, the cytotoxicity at 70.5 h is -4.65%. `CCOc1ccc(CC(CNC(=O)c2sccc2C)C(N)=O)cc1` (centres undefined): the cytotoxicity at 70.5 h is -1.61%. On to `CCOc1ccc(CC(CNC(=O)c2ccc(C)o2)C(N)=O)cc1` (centres undefined), for which the cytotoxicity at 70.5 h was -10.7%. Consider `O=C(c1ccc2[nH]nnc2c1)N1CCCC(n2cccn2)C1` (centres undefined), for which the cytotoxicity at 70.5 h was -5.26%. The value for `Cc1nnc2n1CCN(CC(=O)Nc1cc(C(C)C)no1)C2` was -8.51%; that for `COc1ccccc1CC1CCCN(CCC(N)=O)C1` (centres undefined) was 5.7%; that for `CCc1nnc2n1CCN(CCC(=O)Nc1cc(C)on1)C2` was -5.92%. The value for `CC(C)c1nccn1C1CCCN(C(=O)c2ccsc2)C1` (centres undefined) was -2.65%; that for `Cc1nc(CN2CCOC(CN(C)c3cccnn3)C2)cs1` (centres undefined) was -12.9%. The value for `CCn1cnnc1C1CCN(C(=O)COCCc2ccccc2)CC1` was -3.71%; that for `Cc1ccc(-c2nc(CN3CCn4c(nnc4C4CC4)C3)cs2)o1` was 14.8%. Take `Cc1cc(C(=O)NCCn2nc3ccccn3c2=O)[nH]n1`: the cytotoxicity at 70.5 h was -13.9%. For the compound `CC1CN(CC(=O)NC2CCCC2)CCN1c1ccc2nncn2n1` (centres undefined), the cytotoxicity at 70.5 h is -20.8%. On to `CCc1nc(CN2CCCN(C(=O)COCC3CC3)CC2)cs1`, for which the cytotoxicity at 70.5 h is -12.1%. Regarding `O=C(O)c1csc(S(=O)(=O)Nc2cccc(OC(F)F)c2)c1`, the cytotoxicity at 70.5 h was -12.7%. As for `c1cc(-c2nc(CN3CCn4c(nnc4C4CC4)C3)cs2)cs1`, the cytotoxicity at 70.5 h was -25.2%.

`Cc1ccsc1CNC1CCCc2c1cnn2C` (centres undefined): the cytotoxicity at 70.5 h is -2.66%.
